PubChem BioAssay (NCI)
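Method: 48-hour compound exposure of cells in 96-well plates, five concentrations, linear interpolation of endpoints. At the GI50, growth is halved. The concentration for full growth arrest is given as TGI.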

Columns and labels:
Assay in all cases: NCI tumour cell line growth inhibition, 48 h
[1] = test system: HOP-18 NSCLC
[2] = test system: DLD-1 colon
[3] = test system: M19-MEL melanoma
[4] = test system: DMS 273 small cell lung
[5] = test system: LXFL 529 NSCLC
[6] = test system: XF 498 CNS
[7] = test system: MDA-N
[8] = test system: RXF-631 renal
[9] = test system: P388/ADR leukemia
[10] = test system: SN12K1 renal
[11] = test system: P388 leukemia

| SMILES | TGI [1] [µM] | TGI [2] [µM] | TGI [3] [µM] | TGI [4] [µM] | TGI [5] [µM] | TGI [6] [µM] | TGI [7] [µM] | TGI [8] [µM] | TGI [9] [µM] | TGI [10] [µM] | TGI [11] [µM] | GI50 [7] [µM] |
| --- | --- | --- | --- | --- | --- | --- | --- | --- | --- | --- | --- | --- |
| C/C=C/C(=O)Oc1cccc2cccnc12 | > 100 | 21 | 38.6 | 46.9 | > 100 | 55.2 |  |  |  |  |  |  |
| CC1(C)C(=O)OC(n2cc(F)c(=O)[nH]c2=O)C1=O (configuration not stated) | > 100 | > 100 | > 100 |  | > 100 | > 100 |  |  |  |  |  |  |
| CC(C)(C)[Si](C)(C)OCC1OC(n2cnc3c(=O)[nH]cnc32)CC1O (configuration not stated) |  |  |  |  |  |  | > 100 |  |  |  |  |  |
| COc1ccc(CN2C(=O)[C@@H]3Cc4c(OC)c(C)c(OC)c(OC)c4[C@H](/C2=C\c2cc(OC)c(OC)c(C)c2OC)N3C(=O)OC(C)C)cc1 | > 100 | > 100 | > 100 | > 100 | > 100 |  |  | > 100 |  |  |  |  |
| CN(C)NC(=O)/C(=C/c1ccc(Cl)cc1)NC(=O)c1ccccc1 | > 100 | > 100 | > 100 | > 100 | > 100 | > 100 |  | > 100 |  |  |  |  |
| CNC(=O)ON(C(C)=O)C(=O)NC | 242 | 326 | 401 | 241 |  | 131 | 73.6 |  | 111 | 192 | 62.4 | > 85.8 |
| CCOC(=O)C1=C(C)NC(=O)NC1c1ccc(OC)cc1OC (configuration not stated) | > 100 | > 100 | > 100 | > 100 | > 100 | > 100 |  |  |  |  |  |  |
| COC(=O)C1=CC2C(=O)OC1C1C(=O)NC(=O)C21 (configuration not stated) | > 100 | > 100 | > 100 | > 100 | > 100 | > 100 |  | > 100 |  |  |  |  |
| CC1(C)c2ccccc2N2C(c3ccccc3)=NOC21C (configuration not stated) | > 100 | > 100 | > 100 | > 100 | > 100 |  |  | > 100 |  |  |  |  |
| CC1OC(n2cc(C(F)(F)F)c(=O)[nH]c2=O)C=CC1=O (configuration not stated) |  | 38.2 | 43.3 |  | 31.6 | 30.3 |  | 25.3 |  |  |  |  |
| N#C/C(=C\c1c(O)cc(O)cc1O)C(N)=O |  | > 100 |  | > 100 | > 100 | > 100 |  | > 100 |  |  |  |  |
| O=C(O)CCC(c1ccccc1)(c1ccccc1)c1ccccc1 |  |  |  |  |  |  | > 100 |  |  |  |  |  |
| c1ccc(C2=NOC3C4CCC(C4)C23)cc1 (configuration not stated) | > 100 | > 100 | > 100 | > 100 | > 100 |  |  |  |  |  |  |  |
| CN(c1ccccc1)c1cc2ccccc2nn1 | > 100 | > 100 | > 100 | > 100 | > 100 | > 100 |  | > 100 |  |  |  |  |
| NS(=O)(=O)c1ccc(N=Nc2ccc[nH]c2=O)cc1 |  |  |  |  |  |  | > 100 |  |  |  |  |  |
| O=c1nc2sc3ccccc3c(=O)n2[nH]1 | > 100 | > 100 | > 100 | > 100 | > 100 | > 100 |  | > 100 |  |  |  |  |
| C/C=C(\N=C=S)C(=O)OC1C(COC(C)=O)OC([C@]2(O)CC(=O)C(=N)C(C(=O)O)=C2O)C(O)C1OC1CC(OC)C(O)([C@@H](C)OC(=O)[C@@H](C)CC)C(C)O1 (some centres not stated) | 30.4 | 24.9 | 6.24 | 32.1 | 4.16 | 5.92 | 26.5 |  |  |  |  |  |
